The source of these data is patent US9896440B2, “Aryl substituted heterocyclyl sulfones” (GRÜNENTHAL GMBH, priority 2014, dated 2018).

A value given as a limit tells only on which side of the number the result lay.

The target in the first assay is T1, Human CaV2.2 channels (Homo sapiens, UniProt Q00975).
T1 construct: expressed in transfected cells; Kir2.3 also stably co-expressed
T1 sequence (Q00975 whole entry): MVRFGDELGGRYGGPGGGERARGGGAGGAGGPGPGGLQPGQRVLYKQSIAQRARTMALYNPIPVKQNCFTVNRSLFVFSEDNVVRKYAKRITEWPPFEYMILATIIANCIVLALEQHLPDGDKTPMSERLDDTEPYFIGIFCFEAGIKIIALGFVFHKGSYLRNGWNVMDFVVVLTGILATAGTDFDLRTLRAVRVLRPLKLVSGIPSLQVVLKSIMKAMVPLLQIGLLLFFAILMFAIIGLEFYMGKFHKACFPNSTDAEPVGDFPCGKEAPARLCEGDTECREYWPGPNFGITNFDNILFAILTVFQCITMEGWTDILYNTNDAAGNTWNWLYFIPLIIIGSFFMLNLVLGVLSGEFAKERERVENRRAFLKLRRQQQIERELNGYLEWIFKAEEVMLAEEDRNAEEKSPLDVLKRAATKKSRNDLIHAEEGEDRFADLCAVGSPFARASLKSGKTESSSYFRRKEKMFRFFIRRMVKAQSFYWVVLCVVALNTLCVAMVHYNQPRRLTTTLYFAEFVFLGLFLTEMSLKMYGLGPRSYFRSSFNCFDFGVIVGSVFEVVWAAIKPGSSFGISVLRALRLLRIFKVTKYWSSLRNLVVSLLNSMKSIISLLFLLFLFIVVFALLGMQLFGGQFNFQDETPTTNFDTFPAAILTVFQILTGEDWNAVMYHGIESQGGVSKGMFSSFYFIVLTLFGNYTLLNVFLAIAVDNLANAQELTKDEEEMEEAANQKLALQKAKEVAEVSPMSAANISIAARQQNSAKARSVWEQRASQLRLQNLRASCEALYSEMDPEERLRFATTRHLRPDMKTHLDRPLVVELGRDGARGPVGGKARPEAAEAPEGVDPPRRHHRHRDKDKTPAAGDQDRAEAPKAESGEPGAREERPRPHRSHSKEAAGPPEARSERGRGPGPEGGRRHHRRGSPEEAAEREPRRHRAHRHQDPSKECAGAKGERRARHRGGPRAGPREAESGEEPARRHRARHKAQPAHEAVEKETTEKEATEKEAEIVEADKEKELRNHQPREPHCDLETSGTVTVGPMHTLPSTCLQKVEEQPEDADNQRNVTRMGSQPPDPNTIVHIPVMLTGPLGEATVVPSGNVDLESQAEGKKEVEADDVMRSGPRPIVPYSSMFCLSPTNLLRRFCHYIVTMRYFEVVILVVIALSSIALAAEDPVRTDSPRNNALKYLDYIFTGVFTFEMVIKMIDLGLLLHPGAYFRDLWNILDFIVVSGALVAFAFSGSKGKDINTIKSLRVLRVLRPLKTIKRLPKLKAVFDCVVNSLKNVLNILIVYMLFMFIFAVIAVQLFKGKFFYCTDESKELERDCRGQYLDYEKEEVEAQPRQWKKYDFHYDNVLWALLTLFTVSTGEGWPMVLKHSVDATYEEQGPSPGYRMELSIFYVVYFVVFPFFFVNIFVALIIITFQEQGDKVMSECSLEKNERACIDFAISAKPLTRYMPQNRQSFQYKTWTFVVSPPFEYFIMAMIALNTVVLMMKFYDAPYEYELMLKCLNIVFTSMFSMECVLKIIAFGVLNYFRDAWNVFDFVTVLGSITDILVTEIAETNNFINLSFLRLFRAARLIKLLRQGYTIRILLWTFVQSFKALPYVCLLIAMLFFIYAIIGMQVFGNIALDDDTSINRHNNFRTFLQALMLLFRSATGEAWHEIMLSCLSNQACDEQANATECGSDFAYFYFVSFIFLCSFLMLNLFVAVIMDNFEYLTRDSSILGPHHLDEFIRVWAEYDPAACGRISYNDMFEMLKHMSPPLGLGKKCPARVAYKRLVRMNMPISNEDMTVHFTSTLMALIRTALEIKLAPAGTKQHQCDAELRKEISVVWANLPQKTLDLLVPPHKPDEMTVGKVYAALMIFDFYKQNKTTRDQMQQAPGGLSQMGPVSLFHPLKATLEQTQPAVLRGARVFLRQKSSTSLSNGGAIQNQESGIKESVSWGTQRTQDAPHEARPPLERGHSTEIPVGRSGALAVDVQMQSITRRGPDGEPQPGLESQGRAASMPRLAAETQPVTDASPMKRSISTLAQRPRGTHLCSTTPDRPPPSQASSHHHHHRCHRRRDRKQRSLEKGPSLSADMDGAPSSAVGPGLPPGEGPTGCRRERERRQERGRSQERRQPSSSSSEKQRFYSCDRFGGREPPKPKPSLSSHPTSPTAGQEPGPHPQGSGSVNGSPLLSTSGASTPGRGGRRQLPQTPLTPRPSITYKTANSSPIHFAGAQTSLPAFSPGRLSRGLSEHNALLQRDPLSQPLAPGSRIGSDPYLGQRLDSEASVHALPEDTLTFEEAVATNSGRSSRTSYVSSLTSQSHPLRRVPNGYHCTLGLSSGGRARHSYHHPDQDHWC
Put plainly: Fluorescence assay for CaV2.2 channels using potassium depolarization to induce channel opening (FLIPR, Fluo 4). The assay is classed as cell-based. The conditions noted are these: 3 μM test compound, 30 mM KCl assay buffer (inactivated channel state), HEK293 cells. In outline: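 HEK293 cells stably co-expressing human CaV2.2 with α2δ and β subunits plus Kir2.3, Fluo-4 loaded; compounds preincubated 15 min at 25 °C in 1 mM or 30 mM KCl buffer (inactivated state), pH 7.4. Depolarized by KCl addition; baseline-normalized peak fluorescence (ex 480/em 535 nm) gave inhibition.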
`C[S+]([O-])c1ccc(C2CC(C)(S(=O)(=O)c3cccc(C(F)(F)F)c3)CCO2)c(F)c1` (stereo not shown) [SC-284, 2-[2-Fluoro-4-(methylsulfinyl)-phenyl]-4-methyl-4-[[3-(trifluoromethyl)phenyl]sulfonyl]-tetrahydro-pyran]: the “Activity Category: %-Inhib (CaV2.2) @3 μM @30 mM KCl” value (from here on “Activity Category: %-Inhib”) was “C (%-Inhibition >40% up to ≦75%)”. On to `C[S+]([O-])c1cc(Cl)ccc1C1CC(C)(S(=O)(=O)c2cccc(C(F)(F)F)c2)CCO1` (stereo not shown) [SC-288, 2-[4-Chloro-2-(methylsulfinyl)-phenyl]-4-methyl-4-[[3-(trifluoromethyl)phenyl]sulfonyl]-tetrahydro-pyran], for which the “Activity Category: %-Inhib” value is given as “B (%-Inhibition >75% up to ≦95%)”. Same read-out and setting: for `C[S+]([O-])c1cc(Cl)ccc1C1CC(C)(S(=O)(=O)c2cccc(C(F)(F)F)c2)CCO1` (stereo not shown) [SC-289, 2-[4-Chloro-2-(methylsulfinyl)-phenyl]-4-methyl-4-[[3-(trifluoromethyl)phenyl]sulfonyl]-tetrahydro-pyran] the value was “C (%-Inhibition >40% up to ≦75%)”. Turning to `C[S+]([O-])c1cc(Cl)ccc1C1CC(C)(S(=O)(=O)c2cccc(C(F)(F)F)c2)CCO1` (stereo not shown) [SC-290, 2-[4-Chloro-2-(methylsulfinyl)-phenyl]-4-methyl-4-[[3-(trifluoromethyl)phenyl]sulfonyl]-tetrahydro-pyran], the “Activity Category: %-Inhib” value is listed as “B (%-Inhibition >75% up to ≦95%)”. `C[S+]([O-])c1cc(Cl)ccc1C1CC(C)(S(=O)(=O)c2cccc(C(F)(F)F)c2)CCO1` (stereo not shown) [SC-291, 2-[4-Chloro-2-(methylsulfinyl)-phenyl]-4-methyl-4-[[3-(trifluoromethyl)phenyl]sulfonyl]-tetrahydro-pyran]: the “Activity Category: %-Inhib” value is recorded as “A (%-Inhibition >95%)”.

Turning to `CC1(S(=O)(=O)c2cccc(C(F)(F)F)c2)CCOC(c2cc(F)cc(S(C)(=O)=O)c2)C1` (stereo not shown) [SC-297, 2-(3-Fluoro-5-methylsulfonyl-phenyl)-4-methyl-4-[[3-(trifluoromethyl)phenyl]sulfonyl]-tetrahydro-pyran], the “Activity Category: %-Inhib” value is given as “A (%-Inhibition >95%)”.

As to `CC1(C)CC(C)(S(=O)(=O)c2cccc(C(F)(F)F)c2)CC(c2ccc(Cl)cc2)O1` (stereo not shown) [SC-301, 6-(4-Chlorophenyl)-2,2,4-trimethyl-4-[[3-(trifluoromethyl)phenyl]sulfonyl]-tetrahydro-pyran], the “Activity Category: %-Inhib” value is given as “B (%-Inhibition >75% up to ≦95%)”. On the same count and under the same terms, to `CC1(S(=O)(=O)c2cc(F)cc(C(F)(F)F)c2)CCOC(c2ccc(Cl)cc2)C1` (stereo not shown) [SC-304, 2-(4-Chlorophenyl)-4-[[3-fluoro-5-(trifluoromethyl)-phenyl]sulfonyl]-4-methyl-tetrahydro-pyran] belongs “A (%-Inhibition >95%)”; to `CC1(S(=O)(=O)c2cccc(C(F)(F)F)c2)CCOC(c2ccc(Cl)cc2)C1` (stereo not shown) [SC-311, 2-(4-Chlorophenyl)-4-methyl-4-[[3-(trifluoromethyl)phenyl]sulfonyl]-tetrahydro-pyran], “A (%-Inhibition >95%)”; to `CC1(S(=O)(=O)c2cccc(C(F)(F)F)c2)CCOC(c2ccc(Cl)cc2)C1` (stereo not shown) [SC-312, 2-(4-Chlorophenyl)-4-methyl-4-[[3-(trifluoromethyl)phenyl]sulfonyl]-tetrahydro-pyran], “B (%-Inhibition >75% up to ≦95%)”. The same measure, in the same setting: to `O=S(=O)(c1cccc(C(F)(F)F)c1)C1CCOC(c2ccc(Cl)cc2)C1` (stereo not shown) [SC-402, 2-(4-Chlorophenyl)-4-[[3-(trifluoromethyl)phenyl]sulfonyl]-tetrahydro-pyran] belongs “A (%-Inhibition >95%)”. The same measure, in the same setting: to `CC1(S(=O)(=O)c2cccc(C(F)F)c2)CCOC(c2ccc(S(C)(=O)=O)cc2F)C1` (stereo not shown) [SC-510, 4-[[3-(Difluoro-methyl)-phenyl]sulfonyl]-2-(2-fluoro-4-methylsulfonyl-phenyl)-4-methyl-tetrahydro-pyran] belongs “A (%-Inhibition >95%)”; to `CC1(S(=O)(=O)c2cccc(C3CC3)c2)CCOC(c2ccc(S(C)(=O)=O)cc2F)C1` (stereo not shown) [SC-513, 4-[(3-Cyclopropyl-phenyl)sulfonyl]-2-(2-fluoro-4-methylsulfonyl-phenyl)-4-methyl-tetrahydro-pyran], “A (%-Inhibition >95%)”; to `CC1(S(=O)(=O)c2cccc(OC(F)F)c2)CCOC(c2ccc(S(C)(=O)=O)cc2F)C1` (stereo not shown) [SC-516, 4-[[3-(Difluoro-methoxy)-phenyl]sulfonyl]-2-(2-fluoro-4-methylsulfonyl-phenyl)-4-methyl-tetrahydro-pyran], “C (%-Inhibition >40% up to ≦75%)”.

As to `CC1(S(=O)(=O)c2cccc(OC(F)F)c2)CCOC(c2ccc(S(C)(=O)=O)cc2F)C1` (stereo not shown) [SC-517, 4-[[3-(Difluoro-methoxy)-phenyl]sulfonyl]-2-(2-fluoro-4-methylsulfonyl-phenyl)-4-methyl-tetrahydro-pyran], the “Activity Category: %-Inhib” value was “B (%-Inhibition >75% up to ≦95%)”.

Still in this assay, the particulars now being: HEK293, 3 μM test compound, 30 mM KCl assay buffer (inactivated channel state), HEK293 cells; read-out: Activity Category: %-Inhib (CaV2.2) @3 μM @30 mM KCl.
Turning to `CCc1nc2cc(C3CC(C)(S(=O)(=O)c4cccc(C(F)(F)F)c4)CCO3)ccc2o1` (stereo not shown) [SC-285, 2-Ethyl-5-[4-methyl-4-[[3-(trifluoromethyl)phenyl]sulfonyl]-tetrahydro-pyran-2-yl]-benzooxazole], the inhibition at 3 µM lay in the range of 75 to 95%. For the compound `CC1(S(=O)(=O)c2cccc(C(F)(F)F)c2)CCOC(c2ccc(S(=O)(=O)CCO)cc2)C1` (stereo not shown) [SC-286, 2-[[4-[4-Methyl-4-[[3-(trifluoromethyl)phenyl]sulfonyl]-tetrahydro-pyran-2-yl]-phenyl]sulfonyl]-ethanol], the inhibition at 3 µM fell in the range of 75 to 95%. With `CC1(S(=O)(=O)c2cccc(C(F)(F)F)n2)CCOC(c2ccc(S(C)(=O)=O)cc2)C1` (stereo not shown) [SC-293, 2-[[4-Methyl-2-(4-methylsulfonyl-phenyl)-tetrahydro-pyran-4-yl]sulfonyl]-6-(trifluoromethyl)-pyridine], the inhibition at 3 µM was in the range of 40 to 75%. For the compound `CC1(S(=O)(=O)c2cccc(C(F)(F)F)c2)CCOC(c2cc(S(C)(=O)=O)ccc2F)C1` (stereo not shown) [SC-294, 2-(2-Fluoro-5-methylsulfonyl-phenyl)-4-methyl-4-[[3-(trifluoromethyl)phenyl]sulfonyl]-tetrahydro-pyran], the inhibition at 3 µM lay in the range of 75 to 95%.

Take `CC1(S(=O)(=O)c2cccc(C(F)(F)F)c2)CCOC(c2cc(F)cc(S(C)(=O)=O)c2)C1` (stereo not shown) [SC-296, 2-(3-Fluoro-5-methylsulfonyl-phenyl)-4-methyl-4-[[3-(trifluoromethyl)phenyl]sulfonyl]-tetrahydro-pyran]: the inhibition at 3 µM fell in the range of 75 to 95%. As for `CC1(C)CC(C)(S(=O)(=O)c2cccc(C(F)(F)F)c2)CC(c2ccc(Cl)cc2)O1` (stereo not shown) [SC-300, 6-(4-Chlorophenyl)-2,2,4-trimethyl-4-[[3-(trifluoromethyl)phenyl]sulfonyl]-tetrahydro-pyran], the inhibition at 3 µM is > 95%. For the compound `CC1(S(=O)(=O)c2cc(F)cc(C(F)(F)F)c2)CCOC(c2ccc(Cl)cc2)C1` (stereo not shown) [SC-303, 2-(4-Chlorophenyl)-4-[[3-fluoro-5-(trifluoromethyl)-phenyl]sulfonyl]-4-methyl-tetrahydro-pyran], the inhibition at 3 µM is 75 to 95%. Same read-out and setting: for `CCC1(S(=O)(=O)c2cccc(C(F)(F)F)c2)CCOC(C2CC2)C1` (stereo not shown) [SC-306, 2-Cyclopropyl-4-ethyl-4-[[3-(trifluoromethyl)phenyl]sulfonyl]-tetrahydro-pyran] the value was 40 to 75%; for `CC1(S(=O)(=O)c2cccc(C(F)(F)F)c2)CCOC(c2ccc(Cl)cc2)C1` (stereo not shown) [SC-310, 2-(4-Chlorophenyl)-4-methyl-4-[[3-(trifluoromethyl)phenyl]sulfonyl]-tetrahydro-pyran], > 95%. On the same count and under the same terms, for `CC1(S(=O)(=O)c2cccc(OC(F)(F)F)c2)CCOC(c2ccc(Cl)cc2)C1` (stereo not shown) [SC-313, 2-(4-Chlorophenyl)-4-methyl-4-[[3-(trifluoromethyloxy)-phenyl]sulfonyl]-tetrahydro-pyran] the value was > 95%; for `O=S(=O)(c1cccc(C(F)(F)F)c1)C1CCOC(c2ccc(Cl)cc2)C1` (stereo not shown) [SC-401, 2-(4-Chlorophenyl)-4-[[3-(trifluoromethyl)phenyl]sulfonyl]-tetrahydro-pyran], 75 to 95%; for `CC(C)Oc1cccc(S(=O)(=O)C2(C)CCOC(c3ccc(S(C)(=O)=O)cc3F)C2)c1` (stereo not shown) [SC-500, 2-(2-Fluoro-4-methylsulfonyl-phenyl)-4-[(3-isopropoxy-phenyl)sulfonyl]-4-methyl-tetrahydro-pyran], 75 to 95%.

Turning to `CC1(S(=O)(=O)c2cccc(OC(F)(F)F)c2)CCOC(c2ccc(S(C)(=O)=O)cc2F)C1` (stereo not shown) [SC-502, 2-(2-Fluoro-4-methylsulfonyl-phenyl)-4-methyl-4-[[3-(trifluoromethyloxy)-phenyl]sulfonyl]-tetrahydro-pyran], the inhibition at 3 µM was > 95%. Same read-out and setting: to `CC(C)c1cccc(S(=O)(=O)C2(C)CCOC(c3ccc(S(C)(=O)=O)cc3F)C2)c1` (stereo not shown) [SC-506, 2-(2-Fluoro-4-methylsulfonyl-phenyl)-4-[(3-isopropyl-phenyl)sulfonyl]-4-methyl-tetrahydro-pyran] belongs > 95%; to `CC1(S(=O)(=O)c2cccc(C(F)F)c2)CCOC(c2ccc(S(C)(=O)=O)cc2F)C1` (stereo not shown) [SC-509, 4-[[3-(Difluoro-methyl)-phenyl]sulfonyl]-2-(2-fluoro-4-methylsulfonyl-phenyl)-4-methyl-tetrahydro-pyran], 75 to 95%; to `CC1(S(=O)(=O)c2cccc(C3CC3)c2)CCOC(c2ccc(S(C)(=O)=O)cc2F)C1` (stereo not shown) [SC-512, 4-[(3-Cyclopropyl-phenyl)sulfonyl]-2-(2-fluoro-4-methylsulfonyl-phenyl)-4-methyl-tetrahydro-pyran], 75 to 95%.
